Assay results as given in paper PMC11343458, “Extracellular proteolysis of tandemly duplicated pheromone propeptides affords additional complexity to bacterial quorum sensing” (PLOS Biology, 2024).
Like-named read-outs stand apart in the source and are kept apart here. No end group written: not given here.

How the values were obtained:
[1] = system: Rap^3T (PsrfA-3xYFP competence reporter); experiment: Competence reporter assay (PsrfA-3xYFP) in strain overexpressing Rap^3T; type: cell-based, Bacillus subtilis; conditions: strain 9834 hsRap(phi3T) Psrf-YFP, 1mM IPTG, 4hrs in MC, peptides added after 1 hr; for YFP, Mean: mean of 3 repeats
Text: (§1) Bacillus strains AES9822 (SacA::PsrfA-3xYFP Cm), AES9824 (SacA::PspoIIG-3xYFP Cm), AES9834 (sacA::Psrf-3xYFP cm amyE::hsRap^3T spec), and AES9836 ([…] cm amyE::hsRap^3T spec) were constructed by natural transformation of the pAEC1003, pAEC1103, and pAEC2836 (see next section) plasmids into a PY79;xpf background Bacillus subtilis strain.
For competence experiments, the expression levels of the srf promoter reporter were determinate in a liquid culture generated from a single colony that was inoculated into MC competence media. The strains were grown at 37° with shaking at 220 RPM, with or without addition of 1 mM IPTG. […]

[2] = system: Rap^3T (PspoIIG-3xYFP sporulation reporter); experiment: Sporulation assay (PspoIIG-3xYFP reporter) in strain overexpressing Rap^3T; type: cell-based, Bacillus subtilis; conditions: strain 9836 hsRap(phi3T) PspoIIG-YFP, 1mM IPTG, 6 hrs in DSM, peptides added after 4.5hrs; for Mean %ON: mean of 3 repeats
Text: as §1
For sporulation experiments, the expression levels of spoIIG promoter reporter were determinate in a liquid culture from an overnight starter in LB were diluted 1:100 into Schaeffer’s sporulation medium (DSM). The strains were grown at 37° with shaking at 220 RPM, with or without addition of 1 mM IPTG. After 4.5 h of growth, peptides were added at a concentration of 10 μm. Following an additional 1.5 h of growth, YFP fluorescence was measured using a Beckman Coulter cytoflex flow cytometer.

Rap^3T = experiment: Microscale thermophoresis (MST) of peptide binding to Rap^3T; design: species or system Bacillus phage phi3T
Method: Rap^3T was fluorescently labeled with NT-647 amine reactive dye from the Monolith NT Protein Labeling kit RED-NHS (NanoTemper Technologies) according to the manufacturer’s instructions. Briefly, 100 μm solution of the protein was mixed with 3× dye solution, incubated 30 min in dark, and then purified by gravity in a 5 ml size exclusion column equilibrated with dialysis buffer (20 mM Tris-HCl (pH 8), 250 mM NaCl) supplemented with 0.1% pluronic and 5% glycerol to remove free dye. Rap^105 was fluorescently labeled using His-Tag Labeling Kit RED-tris-NTA 2nd Generation. Briefly, 500 nM of protein was mixed with 5 μm dye in PBS supplemented with 0,02% of tween incubated in dark at room temperature for 30 min and centrifuged at 10,000 g for 10 min at 4°C, transferred to a fresh tube, and used in the assays immediately. Labeled proteins were used at a final optimized concentration of 20 nM in the case of Rap^3T and 250 nM in the case of Rap^105. For the measurements of EC50, a 16-point 2-fold serial dilution (ranged from 2 to 3 × 10^−5 μm) of the peptides were prepared in presence of the corresponding labeled Rap protein. After 15-min incubation at room temperature, samples were filled into standard Capillaries (K005, NanoTemper Technologies) and MST measurements were performed on a Monolith NT.115 (NanoTemper Technologies) in RED channel using 60% to 75% of LED excitation power and medium or high MST power for Rap^3T or Rap^105, respectively. […] Data analyses were performed with M.O. Affinity Analysis software (NanoTermper Technologies) applying cooperative (Hill coefficient) and non-cooperative (Kd model) models, with the first one yielding better fitting values.

[3] = system: extracellular proteases in supernatants of B. subtilis 168, WB800 and individual protease mutants; experiment: Peptide maturation assay with B. subtilis supernatants, read by Rap^105 thermal shift; type: biochemical, Bacillus subtilis; conditions: 100 μm peptide, 1 h room temperature; 8 single protease mutants
Method: Overnight cultures of either B. subtilis strains 168, WB800, Δmpr, Δbpr, ΔaprE, Δepr, ΔwprA, Δvpr, ΔnprB, ΔnprE in GM1 media were diluted 1:20 into GM1 media and incubated at 37°C at 250 rpm. After 2 h, the OD600 were measured and adjusted to 0.5 with GM1 media, and 1 ml of bacterial cultures were centrifuged at 8,000 g for 2 min at room temperature and the supernatants were filtered using 0,2 μm nitrocellulose filters; 1 μl of 10 mM synthetic version of the mature pheromones (RRGHTA, RRGHTAS, SRGHTS, RGHTS, ERPVGT, Imat1^3T, Imat2^3T, Imat1^105, Imat2^105, and Imat3^105) were added to 99 μl of supernatant obtaining a final concentration of 100 μm and incubated for 1 h at room temperature. After incubation, reaction was stopped by incubation at 95°C for 5 min and sample was kept and used in Thermal Shift Assays (see before). In the kinetic assays, samples were inactivated at different times by incubation at 95°C for 5 min. Experiments were validated by experimental triplicates of 3 biological replicates.
(§2) The thermal shift assay was conducted in a CFX Opus Real-Time PCR system (Biorad). Samples of 20 μl containing 20× Sypro Orange (Sigma-Aldrich) and 50 μm of protein in a 20 mM Tris (pH 8) and 250 mM NaCl buffer or filtered supernatant in peptide maturation assays (see below) were loaded in 96-well PCR plates. In the cases where peptide interaction was analyzed, synthetic peptides at a final concentration of 100 μm were added to the assays. Samples were heated from 20 to 85°C in steps of 1 degree. Fluorescent intensity was plotted versus temperature and integrated with either CFX Opus Real-Time PCR automate model or GraphPad Prism software using a Boltzmann model to calculate melting temperatures.

Rap^105 = experiment: Thermal shift assay of Rap^105 with synthetic peptides; type: binding, phage phi105; conditions: 100 μm peptide, without supernatant incubation
Method: as §2

[4] = biological target: Rap^3T (Bacillus phage phi3T); experiment: thermal shift assay; Sypro Orange, 50 μm protein, 100 μm synthetic peptide, 20 mM Tris (pH 8), 250 mM NaCl (or filtered supernatant in the maturation assays), heated from 20 to 85°C
[5] = biological target: Rap^3T (Bacillus phage phi3T); experiment: MST; Rap^3T labelled with NT-647 (RED-NHS) at 20 nM; peptides in a 16-point 2-fold dilution from 2 to 3 x 10^-5 μm; 20 mM Tris-HCl (pH 8), 250 mM NaCl, 0.1% pluronic, 5% glycerol; 15 min at room temperature; Hill model

Question: With RRGHTASIGFTDGHSYDIA as the molecule, how does the “YFP, Mean” value [1] read?
Answer: The value was 8810.67.

Question: And the “YFP, repeat I” value [1]?
Answer: The value was 5838.

Question: And the “YFP, repeat II” value [1]?
Answer: Its value is 10641.

Question: And the “YFP, repeat III” value [1]?
Answer: The value was 9953.

Question: And the “Mean %ON” value [2]?
Answer: Its value is 42.9%.

Question: What about the “%ON (YFP), repeat I” value [2] of the same molecule?
Answer: Its value is 59.6%.

Question: And the “YFP, repeat I” value [2]?
Answer: The value was 5294.

Question: What about the “% ON (YFP), repeat II” value [2] of the same molecule?
Answer: The value was 39.8%.

Question: What about the “YFP, repeat II” value [2] of the same molecule?
Answer: The value was 2641.

Question: What about the “% ON (YFP), repeat III” value [2] of the same molecule?
Answer: Its value is 29.3%.

Question: What about the “YFP, repeat III” value [2] of the same molecule?
Answer: The value was 2055.

Question: With SIGFTDGHSYDIASRGHTS [Long2] as the molecule, how does the EC50 (Rap^3T; MO.Affinity export, one merged set, target 2e-8, On Time evaluation, hot region 4-5, excitation power 10, confidence limits 0 and #NUM! (no real fit), read-out: EC50 (Hill fit), merged set) read?
Answer: Its EC50 is 19800 nM.

Question: How did the “maturation by supernatants of individual protease mutants of B. subtilis 168 (Rap^105 thermal shift)” value (from here on “maturation … (Rap^105 thermal shift)”) [3] turn out when “SSDVKITERPVGT [Imat0^105, immature synthetic peptide […]]” was run?
Answer: Its value is “reduced or null maturation activity in ΔnprE, Δbpr, and ΔwprA mutants”.

Question: What about the “stabilization of Rap^105 in thermal shift assay” value (Rap^105) of the same molecule?
Answer: Its value is “destabilization”.

Question: For “ERPVGTLKLA [Imat1^105, immature synthetic peptide […]]”, which “maturation … (Rap^105 thermal shift)” value [3] is on record?
Answer: The value was “only for ΔwprA mutants”.

Question: What about the “stabilization of Rap^105 in thermal shift assay” value (Rap^105) of the same molecule?
Answer: Its value is “minimal stabilization”.

Question: For SIGFTDGHSYDIASRGHTS, which “YFP, Mean” value [1] is on record?
Answer: The value was 8018.67.

Question: And the “YFP, repeat I” value [1]?
Answer: The value was 5205.

Question: And the “YFP, repeat II” value [1]?
Answer: The value was 10226.

Question: What about the “YFP, repeat III” value [1] of the same molecule?
Answer: The value was 8625.

Question: And the “Mean %ON” value [2]?
Answer: The value was 37.1%.

Question: And the “%ON (YFP), repeat I” value [2]?
Answer: Its value is 51.1%.

Question: And the “YFP, repeat I” value [2]?
Answer: The value was 4889.

Question: What about the “% ON (YFP), repeat II” value [2] of the same molecule?
Answer: Its value is 30.7%.

Question: And the “YFP, repeat II” value [2]?
Answer: Its value is 2305.

Question: What about the “% ON (YFP), repeat III” value [2] of the same molecule?
Answer: The value was 29.5%.

Question: What about the “YFP, repeat III” value [2] of the same molecule?
Answer: Its value is 2121.

Question: Which “maturation … (Rap^105 thermal shift)” value [3] does the source give for “LKLAERPVGT [Imat2^105, immature synthetic peptide […]]” here?
Answer: The value was “maturated for all the supernatants”.

Question: And the “stabilization of Rap^105 in thermal shift assay” value (Rap^105)?
Answer: Its value is “destabilization”.

Question: Which results are given for RRGHTASIGFTDGHSYDIA [Long1]?
Answer: EC50 (Rap^3T; MST, Hill model, target 2e-8, MST-Power Medium, Nano - RED, 25.0°C, replicate 1 (first merge-set, c1), read-out: EC50 (Hill fit)): 133 nM; EC50 (Rap^3T; MST, Hill model, target 2e-8, MST-Power Medium, Nano - RED, 25.0°C, replicate 2 (second merge-set, c4), read-out: EC50 (Hill fit)): 134 nM; EC50 (Rap^3T; MST, Hill model, target 2e-8, MST-Power Medium, Nano - RED, 25.0°C, replicate 3 (third merge-set, c7), read-out: EC50 (Hill fit)): 186 nM

B1: RRGHTA (peptide)
peptide: RRGHTA
Question: With B1 as the molecule, how does the dTm [4] read?
Answer: The dTm was 75 °C.

Question: And the stabilization of the denaturation temperature [4]?
Answer: The stabilization of the denaturation temperature was over 20 °C.

Question: And the EC50 [5]?
Answer: Its EC50 is 5.28 nM.

B2: SRGHTS (peptide)
peptide: SRGHTS
Question: What does the source list for B2?
Answer: stabilization of the denaturation temperature [4]: > 20 °C; EC50 [5]: 20.8 nM

B3: RGHTS (peptide)
peptide: RGHTS
Question: How did the stabilization of the denaturation temperature [4] turn out when B3 was run?
Answer: Its stabilization of the denaturation temperature is over 20 °C.

Question: What about the EC50 [5] of the same molecule?
Answer: The EC50 was 69.8 nM.

B4: RRGHTAS (peptide)
peptide: RRGHTAS
Question: With B4 as the molecule, how does the stabilization of the denaturation temperature [4] read?
Answer: Its stabilization of the denaturation temperature is over 20 °C.

Question: What about the EC50 [5] of the same molecule?
Answer: Its EC50 is 6.7 nM.
